Results as given in patent US8476275B2, “N-[piperazinyl hetaryl]arylsufonamide compounds with affinity for the dopamine D3 receptor” (Abbott GmbH & Co. KG, priority 2003, dated 2013).

Legend:
[1] = molecular target: T1, human dopamine D3 receptors (Homo sapiens, UniProt P35462); test: Dopamine D3 receptor binding, displacement of [125I]-iodosulpride; settings: membranes of HEK-293 cells stably expressing human D3 receptor; 0.1 nM [125I]-iodosulpride; 25° C., 60 minutes
T1 construct: expressed in transfected cells
Experimental: (§1) The substance to be tested was either dissolved in methanol/Chremophor® (BASF-AG) or in dimethyl sulfoxide and then diluted with water to the desired concentration.
(§2) Each assay mixture was run in triplicate.
The incubation buffer contained 50 mM tris, 120 mM NaCl, 5 mM KCl, 2 mM CaCl2, 2 mM MgCl2 and 0.1% bovine serum albumin, 10 μM quinolone and 0.1% ascorbic acid (prepared fresh daily). The buffer was adjusted to pH 7.4 with HCl.
(§3) Measurement and Analysis:
(§4) After having been incubated at 25° C. for 60 minutes, the assay mixtures were filtered through a Whatman GF/B glass fiber filter under vacuum using a cell collecting device. The filters were transferred to scintillation viols using a filter transfer system. After 4 ml of Ultima Gold® (Packard) have been added, the samples were shaken for one hour and the radioactivity was then counted in a Beta-Counter (Packard, Tricarb 2000 or 2200CA). The cpm values were converted into dpm using a standard quench series and the program belonging to the instrument.
(§5) The inhibition curves were analyzed by means of iterative nonlinear regression analysis using the Statistical Analysis System (SAS) which is similar to the “LIGAND” program described by Munson and Rodbard.

[2] = molecular target: T2, human dopamine D2L receptors (long isoform) (Homo sapiens, UniProt P14416); test: Dopamine D2L receptor binding, displacement of [125I] iodospiperone; settings: ratio, HEK-293 membranes, 0.01 nM [125I] iodospiperone
T2 construct: expressed in transfected cells
Experimental: as §1, §2
The incubation buffer contained 50 mM tris, 120 mM NaCl, 5 mM KCl, 2 mM CaCl2, 2 mM MgCl2 and 0.1% bovine serum albumin. The buffer was adjusted to pH 7.4 with HCl.
as §3, §4, §5

T1 sequence (P35462 whole entry): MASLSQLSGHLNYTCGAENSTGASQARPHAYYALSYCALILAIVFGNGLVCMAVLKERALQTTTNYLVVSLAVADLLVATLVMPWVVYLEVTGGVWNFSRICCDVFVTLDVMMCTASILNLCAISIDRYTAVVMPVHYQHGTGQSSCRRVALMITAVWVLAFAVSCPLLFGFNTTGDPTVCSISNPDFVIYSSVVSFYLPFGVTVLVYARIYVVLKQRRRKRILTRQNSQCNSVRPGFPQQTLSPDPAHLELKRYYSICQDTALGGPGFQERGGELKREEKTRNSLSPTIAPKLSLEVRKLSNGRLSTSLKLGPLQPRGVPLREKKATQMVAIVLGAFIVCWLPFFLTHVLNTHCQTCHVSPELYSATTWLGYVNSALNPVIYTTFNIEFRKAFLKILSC
T2 sequence (P14416 whole entry, canonical isoform): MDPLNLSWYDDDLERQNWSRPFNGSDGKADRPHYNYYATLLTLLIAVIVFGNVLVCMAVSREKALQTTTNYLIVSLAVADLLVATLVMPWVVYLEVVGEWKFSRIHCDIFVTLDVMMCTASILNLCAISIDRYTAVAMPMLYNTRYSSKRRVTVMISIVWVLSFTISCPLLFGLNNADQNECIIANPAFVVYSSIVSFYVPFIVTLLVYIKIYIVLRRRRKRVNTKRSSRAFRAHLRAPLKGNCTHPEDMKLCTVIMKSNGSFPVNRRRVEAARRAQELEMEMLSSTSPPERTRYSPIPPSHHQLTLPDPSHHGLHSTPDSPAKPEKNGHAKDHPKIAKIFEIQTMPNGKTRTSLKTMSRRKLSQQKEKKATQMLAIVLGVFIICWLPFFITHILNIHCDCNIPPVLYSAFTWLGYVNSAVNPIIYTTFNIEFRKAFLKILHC

N-[2-(4-Allylpiperazin-1-yl)pyridin-5-yl]-4-(N-pyrrolidinyl)benzene-sulfonamide fumarate [Example 42]
Ki [1]: 5.3 nM
Selectivity vs. D2L [2]: 33
